This is an account of results in patent US9623063B2, “Extracts from Ajuga reptans cell lines, their preparation and use” (I.R.B. ISTITUTO DI RICERCHE BIOTECNOLOGICHE S.r.l., priority 2005, dated 2017).

The test system of one experiment is platelets. The experiment is described as follows: ADP induced platelet aggregation-disaggregation in platelet rich plasma. It is filed as cell-based, rabbit. The settings on record: for Control disaggregation: 10 minutes after ADP; for Control disaggregation / Control aggregation / Latency period: Mean ± SD (n = 6); for Control aggregation: ADP 10 μM. The method, then: Platelet enriched rabbit plasma has been used to assess the platelet anti-aggregating and disaggregating properties of Ajuga reptans Extracts compared with teupolioside and isoteupolioside. Platelet rich plasma has been obtained from rabbit venous blood by mixing it with a 3.8% sodium citrate solution (9:1 v/v). The solution has then been centrifuged at 460×g for 20 minutes. The supernatant has been collected and immediately used for the aggregation assays. Platelet aggregation has been recorded using a Chronolog “Ionised calcium platelet aggregometer” (Chrono-log Co., USA). All measurements have been performed at 37° C. with continuous stirring. One milliliter of the platelet suspension (in the presence or absence of the test substances) has been added to the cuvettes and incubated for five minutes to equilibrate the cells to 37° C. Then 10 μl of a solution of ADP (final concentration—10 μM) has been added and the luminous transmittance continuously recorded. The results are expressed as the DT/DTK ratio, where DTK and DT are the luminous transmittance values, in the absence and presence of extract respectively.
Platelet disaggregation (the disappearance of pre-formed aggregates) has been determined using the same luminous transmittance curve 10 minutes following the addition of ADP. The results are expressed as the DR/DRk ratio, where DRk and DR, are the luminous transmittance in the absence and presence of extract. The test substances, diluted in physiological solution (isotonic saline) (pH 7.4) are pre-incubated with the platelet rich plasma (1:10 v/v) for 5-40 minutes. The aggregation measurements have then been performed. Physiological solution carrier has been added to the control samples (1:10 v/v).

Experiment [1] is described as follows: Metal chelation, spectrophotometric (Ni2+). It is filed as physicochemical. From the text: The chelating activities of Ajuga reptans extracts in relation to Fe^2+, Fe^3+, Cu^2+ and Ni^2+ metal ions has been determined by means of spectrophotometric measurements using a Shimadzu 1770 UV spectrophotometer. The activities of chelating agents depends on the association constant (equilibrium) of their reactions with the metals according to the following reaction:
[formula] wherein Keq is the equilibrium constant equal to the ratio of concentrations at equilibrium of a complex and a product of equilibrium concentrations of metal ions and a chelator:
The method used for determining chelating activities is well documented in the literature (Korkina L G, Afarras'er I B. Antioxidant and chelating properties of flavonoids. Adv. Pharmacol., 1997, 38:151-63). The results are expressed as Keq (M^−1) calculated for a pure phenylpropanoid. This way the chelating activity against ferrous (Fe II), ferric (Fe III), copper (Cu II) and nickel ions has been calculated.

The target of experiment [2] is T1, 5 alpha reductase, type I (Homo sapiens, UniProt P18405).
T1 construct: made in house; host or cells: genetically modified yeast
T1 sequence (P18405 1-259): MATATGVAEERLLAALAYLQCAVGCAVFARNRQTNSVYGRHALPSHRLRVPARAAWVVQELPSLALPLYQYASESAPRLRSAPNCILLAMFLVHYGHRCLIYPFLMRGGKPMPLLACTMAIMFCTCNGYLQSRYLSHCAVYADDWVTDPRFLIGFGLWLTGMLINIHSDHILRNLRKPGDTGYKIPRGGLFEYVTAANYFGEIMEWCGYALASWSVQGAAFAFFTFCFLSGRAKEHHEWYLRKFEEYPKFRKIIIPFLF
The experiment is described as follows: Type I 5 alpha reductase inhibition ([14C] testosterone conversion). It counts as biochemical. The method, then:
Determination of the 5 alpha reductase inhibitory activities by Ajuga reptans extracts in comparison to Serenoa repens extracts. Said determination has been performed using enzymes (5 alpha reductase, type I and type II) produced by genetically modified yeast. Enzyme activities have been determined in the presence of Ajuga reptans extracts, teupolioside, isoteupolioside and Serenoa repens extracts.
Type I 5 alpha reductase activity has been assayed by incubating the enzyme in 0.1 M Tris-citrate buffer (pH 7.0), containing 5 μM [^14C] radio-labelled testosterone (Amersham, Sweden) and 5 mM NADPH (Sigma) in a final volume of 5 ml. The solution thus obtained has been incubated for 1 hour at 37° C.
In both assays, the steroids have been extracted using 5 ml of methylene chloride. The extracts have then been dried under a stream of nitrogen and the dried residues obtained have been dissolved in 20 μl of a chloroform-methanol mixture (2:1 v/v). […] For quantification of the results, the spots have been scraped from the TLC plate and extracted with 2 ml of ethyl acetate. The extracts obtained have been analysed, using scintillation fluid, with the aid of a Wallach β-counter. The enzyme activity has been calculated from the percentage conversion (C %) of the substrate into final product: C%=[counted product/(counted substrate+product)]×100.

Another experiment has as its system tyrosinase. The experiment is described as follows: Tyrosinase inhibition, conversion of L-DOPA to DOPAquinone. It counts as biochemical. The settings on record: 100 μg/ml. From the text: The enzyme tyrosinase catalyses the reactions leading to melanin biosynthesis from tyrosine. […] Substances inhibiting tyrosinase activity produce a clearing/bleaching effect on the skin, since they block melanin synthesis. The method used to determine the inhibition of tyrosinase activity in the oxidation reaction of L-tyrosine to L-DOPA is that described in Kim et al. […] Biol. Pharm. […] The method applied for determination of the inhibition of tyrosinase activity in the conversion of L-DOPA to DOPAquinone is that described in Masamoto et al. (Mushroom tyrosinase inhibitory activity of esculetin isolated from seeds of Euphorbia lathyris L. Biosci. Biotechnol. Biochem., 67(3), 631-634, 2003).

Each structure is given as a SMILES string. Like-named read-outs stand apart in the source and are kept apart here.

The term IC50 denotes the midpoint of a concentration-inhibition curve. As for `CC1OC(OC2C(O)C(COC(=O)C=Cc3ccc(O)c(O)c3)OC(OCCc3ccc(O)c(O)c3)C2O)C(OC2OC(CO)C(O)C(O)C2O)C(O)C1O` (centres unmarked) [Isoteupolioside, isoteupolioside], in the experiment with platelets, the “Platelet disaggregation test, activity in words” value was “activity similar to teupolioside”. Also, the “Ni^2+ (Keq, M^−1)” value in experiment [1] worked out at 2631 ± 373 M⁻¹. For the same molecule, the IC50 in experiment [2] is 20.3 µM. In the experiment on tyrosinase, the “Test LDOPA-DOPAquinone inhibitory activity (%)” value is recorded as 20%.

Turning to `C[C@@H]1O[C@@H](O[C@@H]2[C@@H](O)[C@H](OCCc3ccc(O)c(O)c3)O[C@H](CO)[C@H]2OC(=O)/C=C/c2ccc(O)c(O)c2)[C@H](O[C@@H]2O[C@H](CO)[C@H](O)[C@H](O)[C@H]2O)[C@H](O)[C@H]1O` [Teupolioside, teupolioside], the “Effect on platelet aggregation, in words” value in the experiment on platelets is listed as “modest inhibiting effect on platelet aggregation, only at 1 mg/ml concentration”. The Control disaggregation with platelets (0.001 mg/ml) was 105 ± 5; in the experiment on platelets (0.01 mg/ml), 113 ± 10; in the experiment with platelets (0.1 mg/ml) it was 124 ± 15; in the experiment on platelets (1.0 mg/ml) it was 100 ± 10. Moreover, the Control aggregation in the experiment with platelets (0.001 mg/ml) stood at 121 ± 6; in the experiment on platelets (0.01 mg/ml) it was 110 ± 10; with platelets (0.1 mg/ml), 114 ± 10; with platelets (1.0 mg/ml), 68 ± 9. For the same molecule, the Latency period is 101 ± 3 in the experiment on platelets (0.001 mg/ml), 95 ± 5 in the experiment with platelets (0.01 mg/ml), 94 ± 4 in the experiment with platelets (0.1 mg/ml) and 66 ± 10 with platelets (1.0 mg/ml). Moreover, the “Ni^2+ (Keq, M^−1)” value in experiment [1] (calculated for a pure phenylpropanoid) is 2658 ± 365 M⁻¹. The IC50 in experiment [2] (first column of Table 9, pH 7.0, 5 μM testosterone, read-out: Type I 5 alpha reductase inhibition (IC50) (converted)) was 21.6 µM. Further, in the experiment on tyrosinase, the “Test LDOPA-DOPAquinone inhibitory activity (%)” value is 21%.
